Measured values reported in US20090209633A1, “Treatment of Pain With Resiniferatoxin and Related Analogs” (priority 2006, published 2009).
Entries after “also recorded” stand apart in the source; their conditions may differ. Read-outs that look alike come from different tables or passages of the source.

Columns and labels:
DRG neurons = test: Membrane depolarization and action potentials in DRG neurons (current clamp); type: cell-based, rat
Description: (§1) Primary DRG neuronal cultures were prepared from embryonic day 18 (E18) rat embryos. Adult pregnant rats were killed with an overdose of isoflurane. DRG were dissected and the cells were dissociated by triturating with a fire-polished glass pipette. Cells were cultured in Neurobasal medium (Life Technologies, Buffalo, N.Y., USA), supplemented with 10% fetal bovine serum (FBS), and grown on poly-D-lysine-coated glass coverslips. Cells were used from 5 to 15 days after plating. Small diameter (<30 μm) rounded neurons were selected for patch-clamp experiments. […] The Giga-seal patch-clamp technique was used to record whole-cell currents. For perforated-patch recordings, the bath solution contained (mM): sodium gluconate 140, KCl 2.5, Hepes 10, MgCl2 1 and ethylene glycol bis(2-aminoethyl ether)-N,N,N′N′-tetraacetic acid (EGTA) 1.5 (pH adjusted to 7.35 with NaOH), and the pipette solution contained (mM): sodium gluconate 130, NaCl 10, KCl 2.5, Hepes 10, MgCl2 1, EGTA 1.5 and 240 μg/ml^−1 amphotericin B (pH adjusted to 7.35 with NaOH). For current-clamp experiments the pipette solution contained (mM): potassium gluconate 130, NaCl 10, MgCl2 1, EGTA 0.2, K2ATP 1 and Hepes 10; pH adjusted to 7.35 with NaOH. Extracellular solution for current- and voltage-clamp experiments contained (mM): NaCl 140, KCl 4, MgCl2 1 and Hepes 10; pH adjusted to 7.35 with NaOH. Currents were recorded using a WPC 100 patch-clamp amplifier (E.S.F. Electronic, Goettingan, Germany). Data were filtered at 10 kHz, digitized (VR-10B, Instrutech Corp., Great Neck, N.Y., USA) and stored on videotapes or directly stored in the computer using a LabView interface. For analysis of whole-cell currents, data were filtered at 1 kHz (−3 db frequency with an 8-pole low-pass Bessel filter, Warner Instruments, LPF-8) and digitized at 2 kHz.
To attribute a physiological significance to the slow and irreversible action of RTX, we recorded membrane depolarization in current-clamp conditions. Action potentials in response to a current injection (10-100 pA) were recorded in order to confirm that the neurons were excitable (inset to FIGS. 9A and B). The average membrane potential was −57.1±1 mV (n=42).

[1] = system: TRPV1-containing central terminals; test: Paw withdrawal latency and nocifensive behavior after intrathecal RTX administration; type: in vivo
From the text: FIG. 14 provides photographs of TRPV1 levels in paw skin with and without intrathecal RTX administration. […] However, because PWL is a test for acute pain sensation, it is inappropriate for studying TRPV1 involvement, because TRPV1 mediates inflammatory pain.

TRPV1 [2] = type: in vivo
From the text: Low concentrations of RTX (0.19 micrograms/kg) were introduced intrathecally.
FIG. 14 provides photographs of TRPV1 levels in paw skin with and without intrathecal RTX administration.

vanilloid receptors [3] = biological target: T1, vanilloid receptors (Rattus norvegicus, UniProt O35433); conditions: Acs et al. 1995; cited from earlier work
vanilloid receptors [4] = biological target: T1, vanilloid receptors; conditions: Acs et al. 1995; read-out: Kd, ability to induce Ca2+ uptake; cited from earlier work
TRPV1 [5] = biological target: TRPV1 (Rattus norvegicus, UniProt O35433); conditions: Caterina et al. 1997, cited from earlier work
native TRPV1 [6] = biological target: T2, native TRPV1 (Rattus norvegicus, UniProt O35433); test: Whole-cell currents in cultured embryonic DRG neurons (patch clamp); type: cell-based; conditions: for activation phase of whole-cell current: −60 mV; for reversibility of induced current: RTX 10 and 100 nM, washout >15 min
T2 construct: RTX-induced membrane currents on native TRPV1 in embryonic DRG neurons grown in culture; endogenous in cells; host or cells: primary rat E18 DRG neurons
Description: Electrophysiology. Whole-cell and single-channel currents were recorded from rat DRG neurons in culture and from Xenopus laevis oocytes injected with rat TRPV1 cRNA. Animals were cared for according to the standards of the National Institutes of Health (NIH). All animal use protocols were approved by Southern Illinois University School of Medicine Animal Care Committee.
as §1
This example tests the activation of whole-cell current in DRG neurons by RTX. We determined the properties of RTX-induced membrane currents on native TRPV1 in embryonic DRG neurons grown in culture. […] Protons were not used to elicit currents because of the presence of acid-sensitive ion channels in these neurons.

native TRPV1 [7] = biological target: T2, native TRPV1; conditions: capsaicin 1 μM, cell-attached, Premkumar et al. 2002, cited from earlier work
[8] = RTX 0.19 micrograms/kg intrathecal

T2 sequence (O35433 whole entry): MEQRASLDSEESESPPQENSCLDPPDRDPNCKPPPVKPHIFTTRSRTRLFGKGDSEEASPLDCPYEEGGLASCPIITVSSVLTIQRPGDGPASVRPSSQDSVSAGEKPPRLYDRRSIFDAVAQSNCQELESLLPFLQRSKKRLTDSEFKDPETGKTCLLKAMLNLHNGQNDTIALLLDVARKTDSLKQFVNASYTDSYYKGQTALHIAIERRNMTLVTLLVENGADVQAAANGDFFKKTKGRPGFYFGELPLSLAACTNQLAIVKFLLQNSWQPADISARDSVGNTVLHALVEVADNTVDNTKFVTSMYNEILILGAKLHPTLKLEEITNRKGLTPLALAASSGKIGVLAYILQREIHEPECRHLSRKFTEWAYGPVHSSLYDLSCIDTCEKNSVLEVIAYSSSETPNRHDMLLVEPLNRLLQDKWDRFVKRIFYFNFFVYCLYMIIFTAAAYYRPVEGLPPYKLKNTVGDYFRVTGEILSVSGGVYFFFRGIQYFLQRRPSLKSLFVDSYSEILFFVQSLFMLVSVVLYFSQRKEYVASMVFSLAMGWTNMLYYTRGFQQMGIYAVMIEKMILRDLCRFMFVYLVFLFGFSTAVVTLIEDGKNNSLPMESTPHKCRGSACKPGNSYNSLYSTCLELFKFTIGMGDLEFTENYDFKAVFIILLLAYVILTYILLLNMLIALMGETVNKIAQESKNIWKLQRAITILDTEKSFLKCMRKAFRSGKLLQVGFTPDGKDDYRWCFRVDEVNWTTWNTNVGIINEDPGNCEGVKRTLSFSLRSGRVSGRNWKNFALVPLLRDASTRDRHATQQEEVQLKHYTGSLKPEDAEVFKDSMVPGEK
T1 sequence (O35433 whole entry): as above
Chain of TRPV1 (Rattus norvegicus, UniProt O35433) (O35433 whole entry): as above

In the case of `C=C(C)[C@]12C[C@@H](C)[C@@]34O[C@](Cc5ccccc5)(O[C@@H]1[C@@H]3C=C(COC(=O)Cc1ccc(O)c(OC)c1)C[C@]1(O)C(=O)C(C)=C[C@@H]41)O2` [RTX, resiniferatoxin], the membrane depolarization (DRG neurons; RTX 3 pM) is reported as 10.6±1.6 mV, the “number of action potentials” value (DRG neurons; RTX 3 pM) is reported as 16.6±8.3 and the “number of action potentials” value (DRG neurons; RTX 10 pM) is reported as 24.6±6.9. The membrane depolarization (DRG neurons; RTX 10 nM) was 32.2±5.1 mV, the “number of action potentials” value (DRG neurons; RTX 10 nM) was 24.5±8.6 and the membrane depolarization (DRG neurons; RTX 1 μM) was 52±2 mV. For the same compound, the “number of action potentials” value (DRG neurons; RTX 1 μM) was 14.6±4.6, the membrane depolarization (DRG neurons; RTX 10 μM (so in the source)) was 14.1±1.5 mV and the membrane depolarization (DRG neurons; RTX 100 μM (so in the source)) was 16.3±3 mV. For the same compound, the “number of action potentials” value (DRG neurons; RTX ˜100 pM) was 77.8±11.8, the “nocifensive behavior to intraplantar injection of capsaicin” value [1] was “dramatic decrease; also recorded: significantly reduced” and the “paw withdrawal latency (PWL) to radiant heat” value [1] was “no change; also recorded: not affected”. The duration of guarding ([1]; intraplantar capsaicin) was “decreased significantly”, the number of guarding ([1]; intraplantar capsaicin) was “decreased significantly” and the “TRPV1 levels in DRG” value (TRPV1 [2]; [8]) was “maintenance; also recorded: remained constant”. The “TRPV1 levels in spinal cord dorsal horn (DH)” value (TRPV1 [2]; [8]) was “reduction; also recorded: significantly reduced”, the “effect on cell body or peripheral terminals (paw skin TRPV1)” value (TRPV1 [2]; RTX intrathecal) was “without affecting the cell body or peripheral terminals” and the “fold more potent for binding as compared to Ca2+ uptake” value (vanilloid receptors [3]) was 25 fold. For the same compound, the Ca2+ uptake potency (half-maximal concentration) (vanilloid receptors [4]) was 1 nM, the “fold more potent than capsaicin to activate TRPV1 current” value (TRPV1 [5]) was 20 fold and the EC50 (TRPV1 [5]; read-out: EC50 to activate TRPV1 current) was 39 nM. The “activation phase of whole-cell current” value (native TRPV1 [6]; RTX 10 nM) was 69 ± 10.9 s, the “activation phase of whole-cell current” value (native TRPV1 [6]; RTX 100 nM) was 29.35 ± 2.65 s and the “reversibility of induced current” value (native TRPV1 [6]; capsaicin 1 μM) was “could not be reversed readily”.
For `COc1cc(CNC(=O)CCCC/C=C/C(C)C)ccc1O` [capsaicin], the “maximal Po” value (native TRPV1 [7]; +60 mV) is given as 0.4±0.08, the “maximal Po” value (native TRPV1 [7]; −60 mV) is given as 0.8±0.04 and the membrane depolarization (DRG neurons; capsaicin 30 nM) is given as 13.3±3.5 mV. The “number of action potentials” value (DRG neurons; capsaicin 30 nM) was 54.2±10.5, the “reversibility of induced current” value (native TRPV1 [6]; capsaicin 1 μM) was “readily reversible” and the “activation phase of whole-cell current” value (native TRPV1 [6]; capsaicin 1 μM) was 7.14 ± 0.42 s. The “neurons responding to capsaicin” value (native TRPV1 [6]; small diameter cultured DRG neurons) was “More than 70%”.
